# Laboratory results as given in patent publication US8927533B2, “Thio derivatives bearing lactams as potent HDAC inhibitors and their uses as medicaments” (SIGMA-TAU Industrie Farmaceutiche Riunite S.p.A., priority 2011, dated 2015).
# How the values were obtained:
# HDAC6 = target: T1, HDAC6 (Homo sapiens, UniProt Q9UBN7); test: HDAC enzymatic assay, HDAC6; format: biochemical
# T1 sequence (Q9UBN7 1-1215): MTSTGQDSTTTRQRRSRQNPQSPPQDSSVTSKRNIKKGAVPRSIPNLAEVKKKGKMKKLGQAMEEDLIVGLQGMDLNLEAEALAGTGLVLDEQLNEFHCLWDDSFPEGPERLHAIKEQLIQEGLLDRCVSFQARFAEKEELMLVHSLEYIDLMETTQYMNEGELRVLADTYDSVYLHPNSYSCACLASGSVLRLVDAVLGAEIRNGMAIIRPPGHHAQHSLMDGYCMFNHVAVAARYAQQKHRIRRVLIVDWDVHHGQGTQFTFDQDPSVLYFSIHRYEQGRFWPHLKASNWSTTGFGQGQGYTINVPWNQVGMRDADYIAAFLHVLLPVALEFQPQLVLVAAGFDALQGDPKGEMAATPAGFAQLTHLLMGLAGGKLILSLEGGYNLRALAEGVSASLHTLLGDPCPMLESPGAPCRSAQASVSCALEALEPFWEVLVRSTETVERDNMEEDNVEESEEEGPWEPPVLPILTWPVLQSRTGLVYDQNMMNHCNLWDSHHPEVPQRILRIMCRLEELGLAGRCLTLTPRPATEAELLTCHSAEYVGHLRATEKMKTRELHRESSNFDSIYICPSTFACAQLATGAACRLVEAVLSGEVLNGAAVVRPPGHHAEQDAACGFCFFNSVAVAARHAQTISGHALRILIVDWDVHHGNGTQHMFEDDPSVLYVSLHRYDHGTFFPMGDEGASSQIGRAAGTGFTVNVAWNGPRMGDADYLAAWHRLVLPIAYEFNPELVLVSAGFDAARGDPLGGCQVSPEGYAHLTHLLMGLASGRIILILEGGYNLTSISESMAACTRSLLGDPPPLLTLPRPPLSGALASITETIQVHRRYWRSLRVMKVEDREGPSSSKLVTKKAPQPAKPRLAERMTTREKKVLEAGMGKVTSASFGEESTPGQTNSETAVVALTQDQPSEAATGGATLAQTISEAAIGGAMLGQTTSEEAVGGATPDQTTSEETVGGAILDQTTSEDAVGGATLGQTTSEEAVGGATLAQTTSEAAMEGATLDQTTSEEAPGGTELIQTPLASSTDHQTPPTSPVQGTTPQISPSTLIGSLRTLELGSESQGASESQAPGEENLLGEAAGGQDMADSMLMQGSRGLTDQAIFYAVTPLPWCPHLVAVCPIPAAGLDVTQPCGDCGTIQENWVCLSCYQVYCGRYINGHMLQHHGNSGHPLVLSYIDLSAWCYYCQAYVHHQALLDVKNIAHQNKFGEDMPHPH
# Description: (§1) Each compound was dissolved in DMSO, and progressively diluted solutions were used for testing. […] Upon its deacetylation, the fluorophore was released given rise to fluorescence emission which was detected by a fluorimeter, and the IC50 values of the compounds were determined by analyzing dose-response inhibition curves.
# [1] = test system: eleven HDAC isolated human isoforms; test: HDAC profiling, whole isoform panel; format: biochemical
# Description: as §1
# [2] = test system: α-tubulin acetylation in NCI-H460 cells; test: Tubulin acetylation, Western Blot; conditions: cytoplasmic extracts
# Description: (§4) The experiments were conducted using ECL Plus Western blotting detection reagents (from Amersham Biosciences) and the intensity of the bands were analyzed by using a computed phosphoimage analyzer (PhosphoImager; Molecular Dynamics, Sunnyvale, Calif., U.S.A.).
# [3] = test system: HCT116 colon cancer cells; test: Antitumour activity, HCT116 xenograft (Example 48); format: in vivo, CD1 nude mice; conditions: 50 mg/10 ml/kg i.p., qd×5/w×3w
# Description: (§5) The tested derivatives were administered as a suspension in PBS/DMSO/Cremophor EL (Sigma): 85/10/5 (volume percentage). The antitumour activity was determined by measuring tumour diameters with a Vernier calliper according to the Formula TV=d^2×D/2
# (§6) where d and D are the shortest and longest diameters, respectively.
# (§7) When tumours reached a volume of about 1000 mm^3, mice were sacrificed by cervical dislocation. The efficacy of the drug was assessed as the tumour volume inhibition according to the Formula reported underneath:
# (§8) Body weight recording was carried out to evaluate body weight loss as calculated in the equation underneath:
# (§9) Wherein BW day x corresponds to the mean weight at day x of the experiment meanwhile BW day 1 corresponds to the mean weight at the first day of the experiment.
# HUT78 T-Lymphoma cells = test: Cytotoxicity extended panel, HUT78; format: cell-based; conditions: Homo sapiens, suspension cells, 72 h
# Description: (§2) Cells were seeded in 96-well tissue culture plates at approximately 10% confluence. They were allowed to attach and recover for at least 24 h. Compounds of the present invention were then added to each well at various concentrations in order to define cell survival inhibition IC50. The plates were incubated for 72 h at 37° C., after which time they were washed 3 times by removal of the supernatant. 200 μl of PBS and 50 μl of cold 80% TCA were added and the plates were incubated on ice for at least 1 h. TCA was removed and the plates were washed 3 times by immersion in distilled water. They were then dried on paper at 40° C. for 5 min. 200 μl of 0.4% sulphorodamine B in 1% acetic acid were added. The plates were incubated at room temperature for further 30 min. Sulphorodamine B was removed, and the plates were washed 3 times by immersion in 1% acetic acid and were dried on paper at 40° C. for 5 min. Then 200 μl Tris 10 mM were added. The plates were kept under magnetic stirring for 20 min. Cell survival was determined by means of optical density by a Multiskan spectrofluorimeter at 540 nm. The amount of cells killed was calculated as the percentage decrease in sulphorodamine B binding compared to control cultures. The IC50 values (reported in Table 5) were calculated with the “ALLFIT” program. […]
# [4] = test system: HSC3 head and neck tumour cells; test: Cytotoxicity extended panel, HSC3; format: cell-based; conditions: Homo sapiens, HSC-3, cell survival, 72 h, sulphorodamine B
# Description: (§3) Cells were seeded in 96-well tissue culture plates at approximately 10% confluence. They were allowed to attach and recover for at least 24 h. Compounds of the present invention were then added to each well at various concentrations in order to define cell survival inhibition IC50. The plates were incubated for 72 h at 37° C., after which time they were washed 3 times by removal of the supernatant. 200 μl of PBS and 50 μl of cold 80% TCA were added and the plates were incubated on ice for at least 1 h. TCA was removed and the plates were washed 3 times by immersion in distilled water. They were then dried on paper at 40° C. for 5 min. 200 μl of 0.4% sulphorodamine B in 1% acetic acid were added. The plates were incubated at room temperature for further 30 min. Sulphorodamine B was removed, and the plates were washed 3 times by immersion in 1% acetic acid and were dried on paper at 40° C. for 5 min. Then 200 μl Tris 10 mM were added. The plates were kept under magnetic stirring for 20 min. Cell survival was determined by means of optical density by a Multiskan spectrofluorimeter at 540 nm. The amount of cells killed was calculated as the percentage decrease in sulphorodamine B binding compared to control cultures. The IC50 values (reported in Table 5) were calculated with the “ALLFIT” program.
# [5] = test system: K562 chronic myeloid leukemia cells; test: Cytotoxicity extended panel, K562; format: cell-based; conditions: Homo sapiens, suspension cells, 72 h
# Description: as §2
# [6] = test system: A2780 ovarian tumour cells; test: Cytotoxicity extended panel, A2780; format: cell-based; conditions: Homo sapiens, cell survival, 72 h, sulphorodamine B
# Description: as §3
# [7] = test system: HCT116 colon cancer cells; test: Cytotoxicity, sulphorodamine B, HCT116; conditions: Homo sapiens, HCT-116, read-out: HCT116 cell line IC50 (μM)
# Description: (§10) The plates were incubated for 24 h at 37° C., after which they were washed 3 times by removal of the supernatant and addition of PBS. The plates were then incubated for further 48 h at 37° C. 200 μl PBS and 50 μl of cold 80% TCA were added and the plates were incubated on ice for at least 1 h. TCA was removed and the plates were washed 3 times by immersion in distilled-water. They were then dried on paper at 40° C. for 5 min. 200 μl of 0.4% sulphorodamine B in 1% acetic acid were added. The plates were incubated at room temperature for further 30 min. Sulphorodamine B was removed, and the plates were washed 3 times by immersion in 1% acetic acid and were dried on paper and at 40° C. for 5 min. Then 200 μl Tris 10 mM were added. The plates were kept under magnetic stirring for 20 min. Cell survival was determined by means of optical density by a Multiskan spectrofluorimeter at 540 nm. The amount of cells killed was calculated as the percentage decrease in sulphorodamine B binding compared to control cultures.
# [8] = test system: MCF-7 breast tumour cells; test: Cytotoxicity extended panel, MCF-7; format: cell-based; conditions: Homo sapiens, MCF7, cell survival, 72 h, sulphorodamine B
# Description: as §3
# [9] = test system: MV4-11 acute monocytic leukemia cells; test: Cytotoxicity extended panel, MV4-11; format: cell-based; conditions: Homo sapiens, suspension cells, 72 h
# Description: as §2
# U937 leukemia cells = test: Cytotoxicity extended panel, U937; format: cell-based; conditions: Homo sapiens, U-937, suspension cells, 72 h
# Description: as §2
# [10] = test system: histone H4 acetylation in NCI-H460 cells; test: Histone H4 acetylation, Western Blot
# Description: as §4
# [11] = test system: H929 multiple myeloma cells; test: Antitumour activity, H929 xenograft (Example 48); format: in vivo, CD1 nude mice; conditions: 50 mg/10 ml/kg i.p., qd×5/w×3w
# Description: as §5, §6, §7, §8, §9
# [12] = test system: MDA-MB436 breast tumour cells; test: Cytotoxicity extended panel, MDA-MB436; format: cell-based; conditions: Homo sapiens, MDA-MB-436, cell survival, 72 h, sulphorodamine B
# Description: as §3
# [13] = test system: MDA-MB231 breast tumour cells; test: Cytotoxicity extended panel, MDA-MB231; format: cell-based; conditions: Homo sapiens, MDA-MB-231, cell survival, 72 h, sulphorodamine B
# Description: as §3
# [14] = test system: SKOV-3 ovarian tumour cells; test: Cytotoxicity extended panel, SKOV-3; format: cell-based; conditions: Homo sapiens, SK-OV-3, cell survival, 72 h, sulphorodamine B
# Description: as §3
# NCI-H460 NSCLC = test: Antitumour activity, NCI-H460 xenograft (Example 48); conditions: 50 mg/10 ml/kg i.p., qd×5/w×3w
# Description: as §5, §6, §7, §8, §9
# [15] = test system: NCI-H460 non-small cell lung carcinoma cells; test: Cytotoxicity, sulphorodamine B, H460; conditions: Homo sapiens, NCI-H460, read-out: H460 cell line IC50 (μM)
# Description: as §10
smiles,measurement,setting,value
"CC(C)(C)OC(=O)N[C@@H](CCCCCS)C(=O)NC1CCCC1 [((S)-1-cyclopentylcarbamoyl-6-mercapto-hexyl)-carbamic acid tert-butyl ester, reference compound]",activity on HDAC6 compared with the described compounds,HDAC6,much lower activity on HDAC6 than most of the herein described compounds
same,HDAC isoform selectivity profile,[1],confirmed its HDAC6 selectivity profile
"CC(=O)SCCCCC[C@H](NC(=O)[C@@H]1CCCC(=O)N1)C(=O)Nc1ccccc1 [Example 14, Thioacetic acid S—{(S)-6-[((S)-6-oxo-piperidine-2-carbonyl)-amino]-6-phenylcarbamoyl-hexyl}ester]",hyper-acetylation of cytoplasmatic α-tubulin,[2],comparable to that observed with the reference compound SAHA
same,BWL %,[3],3%
same,TVI %,[3],44%
same,IC50,HUT78 T-Lymphoma cells,0.48 µM
same,IC50,[4],0.77 µM
same,IC50,[5],0.19 µM
same,IC50,[6],0.062 µM
same,IC50,[7],< 0.5 µM
same,IC50,[8],0.19 µM
same,IC50,[9],0.19 µM
same,IC50,U937 leukemia cells,0.049 µM
same,EC50,"[10]; Homo sapiens, NCI-H460, read-out: EC50 μM H4 acetylation",0.1 µM
same,concentration inducing H4 hyper-acetylation,"[10]; NCI-H460 cells, Western Blot, 'as low as'",100 nM
same,BWL %,[11],11%
same,TVI %,[11],30%
same,IC50,[12],0.18 µM
same,IC50,[13],0.23 µM
same,IC50,[14],0.38 µM
same,BWL %,NCI-H460 NSCLC,2%
same,TVI %,NCI-H460 NSCLC,36%
same,IC50,[15],< 0.5 µM
